Measurements reported in patent US11059787B2, “Crystalline form of lenvatinib mesylate and methods thereof” (Shenzhen Bolan Pharmaceutical Co., LTD., priority 2019, dated 2021).

Assays:
[1] = Solubility in water with 1% polyvinyl alcohol; assay type: physicochemical; conditions: solids added until not completely dissolved, in suspension for 5 hours, methanesulfonate
Experimental: The solubility of Form XI was measured as compared to the previously reported Form A and Form C in U.S. Pat. No. 7,612,208. Form XI, Form A and Form C solids were gradually added into water with 1% polyvinyl alcohol until the solids could not dissolve completely and stay in suspension for 5 hours.

[2] = Storage stability of the crystalline form for 15 days, compared by XRPD; assay type: physicochemical; conditions: stored 15 days at 8° C., 25° C., 25° C./92.5% RH, 25° C./4500 LUX and 40° C./75% RH; XRPD comparison
Experimental: The stability of Form XI was measured after being stored for 15 days under the following conditions: 8° C., 25° C., 25° C./92.5% RH, 25° C./4500 LUX and 40° C./75% RH.

[3] = in vivo; conditions: BALB/c, mouse, po

Row | SMILES | Solubility [1] | Stability under storage conditions [2] | AUC(0-inf) [3] | Cmax [3] | Tmax [3] | bioavailability [3] | half-life [3]
1 | COc1cc2nccc(Oc3ccc(NC(=O)NC4CC4)c(Cl)c3)c2cc1C(N)=O.CS(=O)(=O)O [Form A, 4-(3-chloro-4-(cyclopropylaminocarbonyl)aminophenoxy)-7-methoxy-6-quinolinecarboxamide methanesulfonate] | 11.75 mg/mL | – | – | – | – | – | –
2 | COc1cc2nccc(Oc3ccc(NC(=O)NC4CC4)c(Cl)c3)c2cc1C(N)=O.CS(=O)(=O)O [Form C, 4-(3-chloro-4-(cyclopropylaminocarbonyl)aminophenoxy)-7-methoxy-6-quinolinecarboxamide methanesulfonate] | 16.175 mg/mL | – | – | – | – | – | –
3 | COc1cc2nccc(Oc3ccc(NC(=O)NC4CC4)c(Cl)c3)c2cc1C(N)=O.CS(=O)(=O)O [Form XI, 4-(3-chloro-4-(cyclopropylaminocarbonyl)aminophenoxy)-7-methoxy-6-quinolinecarboxamide methanesulfonate] | 26.65 mg/mL | stable | 38900 ± 11100 ng·h/mL | 11500 ± 2920 ng/mL | 0.833 h | 109% | 1.95 ± 0.04 h
